Read-outs that look alike come from different tables or passages of the source. Values belong to the molecule of their own block, whether it stands above or below them.
How the values were obtained:
Format in all cases: biochemical
PglC (Cj) [1] = target: T1, PglC (Cj) (Campylobacter jejuni, UniProt Q0P9D0); test: PGT activity assay with UDP-diNAcBac, percent inhibition at […]; settings: read-out: % inhibition at 100 μM
T1 sequence (Q0P9D0 1-200): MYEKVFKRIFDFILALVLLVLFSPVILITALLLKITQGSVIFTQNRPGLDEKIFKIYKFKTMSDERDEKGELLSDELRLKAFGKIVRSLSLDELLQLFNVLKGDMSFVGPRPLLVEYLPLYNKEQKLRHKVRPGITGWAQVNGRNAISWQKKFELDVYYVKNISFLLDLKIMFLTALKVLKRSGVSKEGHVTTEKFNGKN

PglC (Cj) [2] = target: T1, PglC (Cj)
PglC (Cj) [3] = target: T1, PglC (Cj); test: PGT activity assay with UDP-diNAcBac, percent inhibition at […]; settings: read-out: % inhibition at 100 μM; remark: listed apart in the source
WecA (Tm) = target: T2, WecA (Tm) (Thermotoga maritima, UniProt Q9X1N5); test: PGT activity assay
T2 sequence (Q9X1N5 1-291): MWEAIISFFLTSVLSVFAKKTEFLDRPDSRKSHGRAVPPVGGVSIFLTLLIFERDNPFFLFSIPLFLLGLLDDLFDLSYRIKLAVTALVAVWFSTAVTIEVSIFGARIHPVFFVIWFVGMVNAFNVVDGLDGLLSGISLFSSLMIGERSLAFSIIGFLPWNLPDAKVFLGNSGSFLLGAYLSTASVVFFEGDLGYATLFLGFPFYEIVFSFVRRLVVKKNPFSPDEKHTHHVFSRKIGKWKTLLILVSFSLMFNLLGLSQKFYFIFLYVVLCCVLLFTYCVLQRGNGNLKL

- inhibition at 100 µM (PglC (Cj) [1]): 33 ± 6%
SMILES: O=c1ccn([C@@H]2O[C@H](COP(=O)(O)C(F)(F)P(=O)(O)O)[C@@H](O)[C@H]2O)c(=O)[nH]1 [compound 3, H-CF2]

- IC50 (PglC (Cj) [2]): 32 ± 5.3 µM
SMILES: CC(=O)N[C@H]1[C@@H](OP(=O)(O)C(F)(F)P(=O)(O)OC[C@H]2O[C@@H](n3ccc(=O)[nH]c3=O)[C@H](O)[C@@H]2O)O[C@H](CO)[C@@H](O)[C@@H]1O [compound 4, α-GlcNAc-CF2]

- inhibition at 100 µM (PglC (Cj) [3]): 52 ± 10%
SMILES: CC(=O)N[C@H]1[C@@H](OP(=O)(O)[C@@H](F)P(=O)(O)OC[C@H]2O[C@@H](n3ccc(=O)[nH]c3=O)[C@H](O)[C@@H]2O)O[C@H](CO)[C@@H](O)[C@@H]1O [compound 7, α-GlcNAc-(S)-CHF]

- IC50 (WecA (Tm)): 41 ± 10 µM
- inhibition at 100 µM (PglC (Cj) [3]): 28 ± 12%
SMILES: CC(=O)N[C@H]1[C@@H](OP(=O)(O)CP(=O)(O)OC[C@H]2O[C@@H](n3ccc(=O)[nH]c3=O)[C@H](O)[C@@H]2O)O[C@H](CO)[C@@H](O)[C@@H]1O [compound 11, α-GlcNAc-CH2]
